What all share (assay): biochemical
Common to all, as to parameters: KINOMEscan scanMAX active site-directed competition binding assay, percent of control, 468 kinases
Common to all, as to conditions: competition binding, percent of control

Assay [1] has as its target T1, ABL1-nonphosphorylated (Homo sapiens, UniProt P00519).
T1 construct: nonphosphorylated
The method, then:
(§1) The KINOMEscan^TM screening platform (scanMAX assay) employs a proprietary active site-directed competition binding assay that quantitatively measures the interactions between test compounds (here 100 μM S-carvone) and 468 human protein kinases. The assay was performed at Eurofins DiscoverX Corp. (Fremont, CA, USA). Blocking protein kinase C (PKC) activity was reported to inhibit the transcription of CYP1A1 but to exert no effect on the nuclear translocation of AhR[26], which was also the case here with carvones. Therefore, we tested whether carvones inhibit PKC catalytic activity. […] We also evaluated the interaction between 100 μM S-carvone and 468 human protein kinases, employing KINOMEscan^TM (scanMAX assay), a proprietary active site-directed competition binding assay. The minimal inhibitory threshold used by the screening platform KINOMEscan^TM is 35% of the control kinase activity. Among 468 kinases tested, 467 were above the 35% cutoff. Tyrosine kinase 2 TK2 (JH2 domain pseudokinase) activity was inhibited to 27% of the control activity, but this kinase is not relevant to the regulation of transcription activity (Fig. 5B; Figure S9). Overall, we excluded the possibility that the effects of carvones on AhR signaling are caused indirectly by the inhibition of the human kinome, particularly PKC.

For assay [2], the target named is T2, CDC2L1 (Homo sapiens, UniProt P21127).
T2 construct: gene CDK11B
How it is done: as §1

Assay [3] concerns the target CHEK1 (Homo sapiens, UniProt O14757). How it is done:
as §1

In assay [4] the target is EPHA5 (Homo sapiens, UniProt P54756). How it is done:
as §1

For assay [5], the target named is T3, ERK1 (Homo sapiens, UniProt P27361).
T3 construct: gene MAPK3
The method, then:
as §1

The target of assay [6] is FGR (Homo sapiens, UniProt P09769). How it is done:
as §1

Assay [7] deals with FLT3 (Homo sapiens, UniProt P36888). The method, then:
as §1

For assay [8], the target named is T4, GCN2(Kin.Dom.2,S808G) (Homo sapiens, UniProt Q9P2K8, S808G).
T4 construct: gene EIF2AK4; Kin.Dom.2
How it is done: as §1

The target in assay [9] is T5, IKK-beta (Homo sapiens, UniProt O14920).
T5 construct: gene IKBKB
The method, then: as §1

Assay [10] addresses T6, JAK1(JH2domain-pseudokinase) (Homo sapiens, UniProt P23458).
T6 construct: JH2domain-pseudokinase
How it is done: as §1

The target of assay [11] is T7, LZK (Homo sapiens, UniProt O43283).
T7 construct: gene MAP3K13
The method, then: as §1

Assay [12] concerns the target MARK3 (Homo sapiens, UniProt P27448). How it is done: as §1
The target of assay [13] is NEK2 (Homo sapiens, UniProt P51955). The method, then: as §1
Assay [14] deals with NEK3 (Homo sapiens, UniProt P51956). The method, then: as §1
Assay [15] has as its target PAK3 (Homo sapiens, UniProt O75914). The method, then:
as §1

Assay [16] concerns the target RIPK1 (Homo sapiens, UniProt Q13546). How it is done: as §1
In assay [17] the target is T8, RSK4(Kin.Dom.1-N-terminal) (Homo sapiens, UniProt Q9UK32).
T8 construct: gene RPS6KA6; Kin.Dom.1-N-terminal
The method, then: as §1

The target of assay [18] is TAOK1 (Homo sapiens, UniProt Q7L7X3). How it is done: as §1
In assay [19] the target is TIE1 (Homo sapiens, UniProt P35590). The method, then: as §1
Assay [20] addresses TLK2 (Homo sapiens, UniProt Q86UE8). How it is done:
as §1

The target of assay [21] is TXK (Homo sapiens, UniProt P42681). The method, then:
as §1

Each structure is given as a SMILES string.

T5 sequence (O14920 whole entry): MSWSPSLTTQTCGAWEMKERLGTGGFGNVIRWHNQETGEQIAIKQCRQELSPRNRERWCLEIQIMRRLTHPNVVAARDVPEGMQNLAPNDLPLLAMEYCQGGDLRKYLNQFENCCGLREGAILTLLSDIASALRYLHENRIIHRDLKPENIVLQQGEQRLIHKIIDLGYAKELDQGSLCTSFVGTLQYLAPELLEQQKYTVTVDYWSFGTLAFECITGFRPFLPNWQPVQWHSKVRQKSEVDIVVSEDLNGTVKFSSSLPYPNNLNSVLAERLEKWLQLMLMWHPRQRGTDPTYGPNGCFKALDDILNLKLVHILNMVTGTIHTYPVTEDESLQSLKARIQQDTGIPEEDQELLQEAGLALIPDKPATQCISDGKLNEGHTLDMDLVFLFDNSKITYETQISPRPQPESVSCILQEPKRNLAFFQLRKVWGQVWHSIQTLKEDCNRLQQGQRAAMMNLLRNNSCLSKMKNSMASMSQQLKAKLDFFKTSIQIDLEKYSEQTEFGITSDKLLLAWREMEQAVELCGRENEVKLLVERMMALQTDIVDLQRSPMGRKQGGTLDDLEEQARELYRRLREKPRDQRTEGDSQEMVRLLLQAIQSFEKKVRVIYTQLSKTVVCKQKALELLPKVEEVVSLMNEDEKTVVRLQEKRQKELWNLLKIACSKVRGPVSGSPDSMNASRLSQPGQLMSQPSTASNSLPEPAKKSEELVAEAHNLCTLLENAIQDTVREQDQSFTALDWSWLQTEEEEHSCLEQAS
Chain of NEK2 (P51955 whole entry): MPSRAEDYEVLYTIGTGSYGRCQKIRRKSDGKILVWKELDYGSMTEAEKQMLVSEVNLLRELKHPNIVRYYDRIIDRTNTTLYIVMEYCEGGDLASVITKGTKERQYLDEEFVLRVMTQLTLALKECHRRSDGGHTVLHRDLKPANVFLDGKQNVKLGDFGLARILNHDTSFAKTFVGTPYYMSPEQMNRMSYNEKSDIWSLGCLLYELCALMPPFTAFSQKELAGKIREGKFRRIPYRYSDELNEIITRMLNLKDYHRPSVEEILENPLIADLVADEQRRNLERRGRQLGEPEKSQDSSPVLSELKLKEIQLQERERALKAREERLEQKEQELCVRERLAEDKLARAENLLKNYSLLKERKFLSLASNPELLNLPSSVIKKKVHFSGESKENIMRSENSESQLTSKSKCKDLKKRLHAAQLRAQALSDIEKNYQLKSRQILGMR
Chain of EPHA5 (P54756 whole entry): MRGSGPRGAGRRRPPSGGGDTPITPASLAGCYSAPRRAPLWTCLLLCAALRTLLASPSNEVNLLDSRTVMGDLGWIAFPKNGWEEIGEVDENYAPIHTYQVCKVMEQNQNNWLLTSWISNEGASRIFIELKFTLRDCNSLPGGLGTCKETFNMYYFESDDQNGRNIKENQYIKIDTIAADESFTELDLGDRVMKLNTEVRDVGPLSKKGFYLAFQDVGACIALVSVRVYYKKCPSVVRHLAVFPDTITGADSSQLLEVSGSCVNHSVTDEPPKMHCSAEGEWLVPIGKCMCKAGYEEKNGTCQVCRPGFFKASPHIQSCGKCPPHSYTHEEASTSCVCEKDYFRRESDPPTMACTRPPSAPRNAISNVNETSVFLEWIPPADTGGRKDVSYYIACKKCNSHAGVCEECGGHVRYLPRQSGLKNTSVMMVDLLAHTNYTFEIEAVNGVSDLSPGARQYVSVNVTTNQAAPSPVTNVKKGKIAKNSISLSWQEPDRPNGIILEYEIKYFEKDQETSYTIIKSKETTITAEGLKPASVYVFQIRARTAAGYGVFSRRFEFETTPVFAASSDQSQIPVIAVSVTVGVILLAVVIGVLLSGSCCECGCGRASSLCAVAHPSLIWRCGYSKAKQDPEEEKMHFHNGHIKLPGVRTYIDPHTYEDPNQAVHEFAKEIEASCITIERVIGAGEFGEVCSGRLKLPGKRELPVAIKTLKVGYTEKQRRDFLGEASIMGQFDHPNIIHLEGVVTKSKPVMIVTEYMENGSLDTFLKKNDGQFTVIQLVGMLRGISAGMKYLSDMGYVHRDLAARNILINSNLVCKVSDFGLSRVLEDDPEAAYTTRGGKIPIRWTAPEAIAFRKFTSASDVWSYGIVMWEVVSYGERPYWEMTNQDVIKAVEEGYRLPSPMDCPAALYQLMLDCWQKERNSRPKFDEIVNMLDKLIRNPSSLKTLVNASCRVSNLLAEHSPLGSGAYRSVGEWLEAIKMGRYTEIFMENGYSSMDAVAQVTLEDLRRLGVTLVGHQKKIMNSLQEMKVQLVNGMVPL
Chain of TXK (P42681 whole entry): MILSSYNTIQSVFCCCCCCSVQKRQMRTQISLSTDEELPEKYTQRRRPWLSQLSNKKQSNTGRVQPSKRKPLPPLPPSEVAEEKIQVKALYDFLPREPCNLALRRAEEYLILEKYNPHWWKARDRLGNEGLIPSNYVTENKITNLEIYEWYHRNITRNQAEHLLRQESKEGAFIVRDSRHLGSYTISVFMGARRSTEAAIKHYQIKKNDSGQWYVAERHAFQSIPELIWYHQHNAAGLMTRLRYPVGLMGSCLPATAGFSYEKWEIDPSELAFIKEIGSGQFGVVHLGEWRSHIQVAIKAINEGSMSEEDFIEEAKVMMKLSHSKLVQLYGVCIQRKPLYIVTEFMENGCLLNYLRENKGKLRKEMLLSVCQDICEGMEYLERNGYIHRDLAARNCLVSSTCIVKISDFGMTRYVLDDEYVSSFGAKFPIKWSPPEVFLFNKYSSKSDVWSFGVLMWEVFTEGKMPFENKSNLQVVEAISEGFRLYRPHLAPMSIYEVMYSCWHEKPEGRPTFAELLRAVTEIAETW
Chain of CHEK1 (O14757 whole entry): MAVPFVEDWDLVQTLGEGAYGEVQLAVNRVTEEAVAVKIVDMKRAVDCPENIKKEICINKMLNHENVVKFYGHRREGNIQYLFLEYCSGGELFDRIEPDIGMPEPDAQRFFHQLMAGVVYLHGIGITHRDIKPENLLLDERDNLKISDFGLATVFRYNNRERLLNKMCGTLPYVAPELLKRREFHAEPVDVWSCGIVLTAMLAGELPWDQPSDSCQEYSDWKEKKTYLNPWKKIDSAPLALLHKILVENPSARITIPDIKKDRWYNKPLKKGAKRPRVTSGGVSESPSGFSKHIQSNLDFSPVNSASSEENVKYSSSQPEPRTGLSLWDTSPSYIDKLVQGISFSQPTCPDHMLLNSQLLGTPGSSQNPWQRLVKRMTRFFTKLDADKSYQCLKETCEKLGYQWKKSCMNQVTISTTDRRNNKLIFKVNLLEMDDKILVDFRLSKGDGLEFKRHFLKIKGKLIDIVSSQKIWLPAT
T2 sequence (P21127 whole entry): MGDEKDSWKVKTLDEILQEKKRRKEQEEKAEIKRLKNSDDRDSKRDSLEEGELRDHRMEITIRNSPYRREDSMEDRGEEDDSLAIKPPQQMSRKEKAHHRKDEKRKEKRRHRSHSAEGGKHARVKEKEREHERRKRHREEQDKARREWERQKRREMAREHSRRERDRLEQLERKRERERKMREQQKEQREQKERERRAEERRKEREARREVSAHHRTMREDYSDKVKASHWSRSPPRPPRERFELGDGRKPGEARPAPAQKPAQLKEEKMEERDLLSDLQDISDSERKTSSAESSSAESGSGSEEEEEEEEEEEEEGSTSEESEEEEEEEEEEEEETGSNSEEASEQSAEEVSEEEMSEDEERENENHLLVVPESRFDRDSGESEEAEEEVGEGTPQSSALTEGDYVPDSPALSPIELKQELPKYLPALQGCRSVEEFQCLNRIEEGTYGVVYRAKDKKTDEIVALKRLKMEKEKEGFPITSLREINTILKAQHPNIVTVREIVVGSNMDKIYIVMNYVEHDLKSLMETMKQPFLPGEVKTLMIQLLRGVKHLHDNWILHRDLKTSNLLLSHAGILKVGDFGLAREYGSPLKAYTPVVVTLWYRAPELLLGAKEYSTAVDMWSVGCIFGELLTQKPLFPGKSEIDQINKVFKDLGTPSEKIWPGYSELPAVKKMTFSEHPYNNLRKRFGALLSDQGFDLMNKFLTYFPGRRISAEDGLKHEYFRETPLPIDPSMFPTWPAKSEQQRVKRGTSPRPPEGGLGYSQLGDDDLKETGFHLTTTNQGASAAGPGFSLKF
T8 sequence (Q9UK32 whole entry): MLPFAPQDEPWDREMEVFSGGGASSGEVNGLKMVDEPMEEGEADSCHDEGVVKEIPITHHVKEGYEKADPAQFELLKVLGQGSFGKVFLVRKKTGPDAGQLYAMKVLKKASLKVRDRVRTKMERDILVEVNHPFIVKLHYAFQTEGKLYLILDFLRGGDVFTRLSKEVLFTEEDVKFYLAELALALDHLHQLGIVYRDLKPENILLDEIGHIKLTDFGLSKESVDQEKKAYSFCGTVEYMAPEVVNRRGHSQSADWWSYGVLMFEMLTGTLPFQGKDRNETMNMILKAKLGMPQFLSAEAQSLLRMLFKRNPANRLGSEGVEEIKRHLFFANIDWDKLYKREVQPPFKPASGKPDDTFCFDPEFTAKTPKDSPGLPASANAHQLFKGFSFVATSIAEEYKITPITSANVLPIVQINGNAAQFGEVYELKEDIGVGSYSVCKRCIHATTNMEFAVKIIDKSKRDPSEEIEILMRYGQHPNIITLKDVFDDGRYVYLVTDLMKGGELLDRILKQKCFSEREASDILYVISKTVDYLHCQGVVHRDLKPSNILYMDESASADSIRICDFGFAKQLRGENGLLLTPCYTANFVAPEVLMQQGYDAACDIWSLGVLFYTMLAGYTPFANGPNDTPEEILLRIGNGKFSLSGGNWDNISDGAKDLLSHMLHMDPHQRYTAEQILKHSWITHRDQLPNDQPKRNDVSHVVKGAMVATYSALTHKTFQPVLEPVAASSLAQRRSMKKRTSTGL

With `C=C(C)[C@H]1CC=C(C)C(=O)C1` [S-carvone], the remaining binding at 100 µM came out at 76% in [1]; 90% in [2]; 91% in [3]; 61% in assay [4]; 75% in assay [5]; 57% in [6]. Moreover, the remaining binding at 100 µM stood at 71% in assay [7]; 63% in assay [8]; 72% in assay [9]; 58% in [10]; 78% in assay [11]; 68% in assay [12]. In addition, the remaining binding at 100 µM in [13] amounted to 100%; in assay [14] it was 49%; in assay [15] it was 78%; in [16], 87%; in assay [17] it was 63%; in [18], 82%. Moreover, the figures for the remaining binding at 100 µM in assay [19], in [20] and in [21] were 89%, 94% and 89%, respectively.

The values are drawn from article PMC10174618, “Monoterpenoid aryl hydrocarbon receptor allosteric antagonists protect against ultraviolet skin damage in female mice” (Nature Communications, 2023).
